Reference: patent US20250346597A1, “CONDENSED HETEROCYCLIC COMPOUNDS AS INHIBITOR OF DIACYLGLYCEROL KINASES” (BEONE MEDICINES I GMBH, priority 2023, published 2025)

Legend:
DGKζ = DGKζ (Homo sapiens (Human), UniProt Q13574); experiment: Biochemical DGK IC50 assay (ADP-Glo, lipid micelle substrate), DGKζ; settings: full length DGKζ 0.5 nM, ATP 140 μM, DAG 80 μM
Description: (§1) Enzymatic reactions of DGKζ, DGKα and DGKδ were performed using ADP-Glo assay with lipid micelle substrate. […] Full length DGKα (D21-10BG, SignalChem) and full length DGKδ (D23-10G, SignalChem) were purchased. Lipid micelle was prepared by dissolving DAG (Sigma, 317505-10MG) and PS (Sigma, P7769-100MG) with chloroform which was furtherly removed by rotary evaporation. The resulted product was resuspended in buffer containing 25 mM HEPES pH 7.0, 0.5 mM EDTA and 160 mM Octyl P-D glucopyranoside by vigorous mixing and ultrasonic (IID, Scientz).
(§2) The inhibition activities testing for the compound disclosed herein were carried out at room temperature in assay buffer containing 50 mM HEPES, 10 mM MgCl2, 0.01% BSA, 0.1 mM Na3VO4, 0.005% Tween-20 and 0.01 mM CaCl2. Compounds in DMSO were dispensed into wells of a black 384 well plate (Corning 4514) using D300e digital dispenser (Tecan). […] 3 μL 2× enzyme solution was added to wells. […] After 1 hour reaction, 5 μL ADP-Glo reagent (Promga V9101) was added and incubated for 40 minutes. 10 μL Kinase Detection reagent was added and incubated for 30 minutes. Luminescence was measured on a microplate reader (PHERAstar FSX, BMG labtech). The IC50s are calculated based on inhibition of enzyme activity in the presence of increasing concentrations of compounds.
Human His-TEV-DGK-zeta-pFastBac1 and human baculovirus samples was generated using the Bac-to-Bac baculovirus expression system (Invitrogen) according to the manufacturer's protocol. The DNA used for expression of DGK-zeta, have SEQ ID Nos: 1. Baculovirus amplification was achieved using infected SF9 cells at 1:2000 virus/cells ratios, and grown for 96 hours at 27° C. post-transfected.
The expression scaled up for each protein was carried out in the […] from CORNING. 4 L of 3×10^6 cells/mL Sf9 cells (Expression System, Invitrogen) grown in SF900™ II SFM insect medium (Expression System) was infected with virus stock at 1:200 virus/cells ratio, and grown for 48 hours at 27° C. post-transfection. The infected cell culture was harvested by centrifugation at 6000 rpm for 15 min 4° C. in a SORVALL LYNX6000 centrifuge. The cell pellets were stored at −80° C.
Full length human DGKζ produced as described above, was purified from Sf9 baculovirus-infected insect cell paste. The cells were lysed using sonication method, and the lysates were clarified by centrifugation.

DGKα = DGKα (Homo sapiens (Human), UniProt P23743); experiment: Biochemical DGK IC50 assay (ADP-Glo, lipid micelle substrate), DGKα; settings: full length DGKα […], ATP 140 μM, DAG 80 μM; further: full length DGKα 7.5 nM
Description: as §1, §2

Chain of DGKα (P23743 whole entry): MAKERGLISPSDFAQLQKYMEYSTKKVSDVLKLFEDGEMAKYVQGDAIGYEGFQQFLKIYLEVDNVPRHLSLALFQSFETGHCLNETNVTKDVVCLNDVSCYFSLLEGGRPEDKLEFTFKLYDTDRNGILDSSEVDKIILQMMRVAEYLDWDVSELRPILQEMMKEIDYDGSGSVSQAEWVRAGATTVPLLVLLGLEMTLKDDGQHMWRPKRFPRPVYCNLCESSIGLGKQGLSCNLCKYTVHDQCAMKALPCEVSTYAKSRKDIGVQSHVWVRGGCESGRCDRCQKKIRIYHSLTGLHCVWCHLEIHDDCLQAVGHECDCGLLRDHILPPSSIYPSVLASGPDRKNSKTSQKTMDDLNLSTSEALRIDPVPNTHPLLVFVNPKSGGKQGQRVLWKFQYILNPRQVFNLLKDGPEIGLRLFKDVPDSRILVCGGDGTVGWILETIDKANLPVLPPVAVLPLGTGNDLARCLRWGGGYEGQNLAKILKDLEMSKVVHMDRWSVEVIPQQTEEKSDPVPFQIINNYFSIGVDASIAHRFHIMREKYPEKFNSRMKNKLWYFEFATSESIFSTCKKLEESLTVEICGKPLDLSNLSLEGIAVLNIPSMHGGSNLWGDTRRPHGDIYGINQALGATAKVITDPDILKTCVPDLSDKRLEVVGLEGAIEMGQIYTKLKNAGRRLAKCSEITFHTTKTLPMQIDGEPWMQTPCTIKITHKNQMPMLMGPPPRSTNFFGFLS
Chain of DGKζ (Q13574 other isoform, or with tags, fused parts or gaps): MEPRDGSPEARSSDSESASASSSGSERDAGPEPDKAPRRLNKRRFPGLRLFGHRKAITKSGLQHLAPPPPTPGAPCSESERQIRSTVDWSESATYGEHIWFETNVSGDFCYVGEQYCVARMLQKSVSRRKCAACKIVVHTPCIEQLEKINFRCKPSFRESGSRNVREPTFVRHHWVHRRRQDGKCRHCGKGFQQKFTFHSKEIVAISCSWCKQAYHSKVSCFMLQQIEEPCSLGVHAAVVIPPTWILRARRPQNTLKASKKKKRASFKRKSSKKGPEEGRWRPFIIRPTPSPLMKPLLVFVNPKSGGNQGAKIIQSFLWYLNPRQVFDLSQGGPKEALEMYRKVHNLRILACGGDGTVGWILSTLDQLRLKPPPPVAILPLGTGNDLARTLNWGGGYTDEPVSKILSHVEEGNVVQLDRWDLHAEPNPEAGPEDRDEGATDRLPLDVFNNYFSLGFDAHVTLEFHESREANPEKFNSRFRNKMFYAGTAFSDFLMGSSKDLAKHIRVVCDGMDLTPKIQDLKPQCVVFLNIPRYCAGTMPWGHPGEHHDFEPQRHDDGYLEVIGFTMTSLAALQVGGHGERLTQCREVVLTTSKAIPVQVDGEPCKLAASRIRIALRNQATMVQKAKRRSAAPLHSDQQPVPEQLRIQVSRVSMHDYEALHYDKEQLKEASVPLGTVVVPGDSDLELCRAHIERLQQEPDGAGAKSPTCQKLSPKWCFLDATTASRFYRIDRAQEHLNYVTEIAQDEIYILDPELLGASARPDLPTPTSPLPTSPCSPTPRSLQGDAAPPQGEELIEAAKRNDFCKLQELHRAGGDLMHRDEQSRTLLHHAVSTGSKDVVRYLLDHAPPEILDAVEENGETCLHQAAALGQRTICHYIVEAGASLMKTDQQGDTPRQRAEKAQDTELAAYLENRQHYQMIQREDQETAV

Row | IC50 (DGKζ) [nM] | IC50 (DGKα) [nM] | SMILES
1 | 43 | 68 | CC[C@H]1CN(C(C)c2ccc3ncoc3c2)[C@H](CC)CN1c1cc(=O)n(C)c2cn(CC#N)nc12 (single isomer, unassigned) [Compound A84a]
2 | 3180 | 1170 | CC[C@H]1CN(C(C)c2ccc3ncoc3c2)[C@H](CC)CN1c1cc(=O)n(C)c2cn(CC#N)nc12 (single isomer, unassigned) [Compound A84b]
3 | 9.1 | 108 | CC[C@@H]1CN(c2cc(=O)n(C)c3cn(CC#N)nc23)[C@@H](C)CN1C(C)c1ccc2ncsc2c1 (single isomer, unassigned) [Compound A92a]
4 | 265 | 1020 | CC[C@@H]1CN(c2cc(=O)n(C)c3cn(CC#N)nc23)[C@@H](C)CN1C(C)c1ccc2ncsc2c1 (single isomer, unassigned) [Compound A92b]
5 | 108 | 5510 | CC[C@H]1CN(C(C)c2cnc3ncsc3c2)[C@H](CC)CN1c1cc(=O)n(C)c2cn(CC#N)nc12 (single isomer, unassigned) [Compound A98a]
6 | 2870 | 9470 | CC[C@H]1CN(C(C)c2cnc3ncsc3c2)[C@H](CC)CN1c1cc(=O)n(C)c2cn(CC#N)nc12 (single isomer, unassigned) [Compound A98b]
7 | 3520 | 1740 | CC[C@H]1CN(C(C)c2ccc3ncsc3n2)[C@H](CC)CN1c1cc(=O)n(C)c2cn(CC#N)nc12 (single isomer, unassigned) [Compound A99a]
8 | 8.6 | 24 | CC[C@H]1CN(C(C)c2ccc3ncsc3n2)[C@H](CC)CN1c1cc(=O)n(C)c2cn(CC#N)nc12 (single isomer, unassigned) [Compound A99b]
9 | 19 | 2610 | CC[C@H]1CN(C(C)c2cc(F)c3ncsc3c2)[C@H](CC)CN1c1cc(=O)n(C)c2cn(CC#N)nc12 (single isomer, unassigned) [Compound A101a]
10 | 1240 | 17700 | CC[C@H]1CN(C(C)c2cc(F)c3ncsc3c2)[C@H](CC)CN1c1cc(=O)n(C)c2cn(CC#N)nc12 (single isomer, unassigned) [Compound A101b]
11 | 14 | 92 | CC[C@H]1CN(C(C)c2cc3scnc3cc2F)[C@H](CC)CN1c1cc(=O)n(C)c2cn(CC#N)nc12 (single isomer, unassigned) [Compound A103a]
12 | 629 | 1350 | CC[C@H]1CN(C(C)c2cc3scnc3cc2F)[C@H](CC)CN1c1cc(=O)n(C)c2cn(CC#N)nc12 (single isomer, unassigned) [Compound A103b]
13 | 9 | 65 | CC[C@H]1CN(C(C)c2ccc3nsnc3c2)[C@H](CC)CN1c1cc(=O)n(C)c2cn(CC#N)nc12 (single isomer, unassigned) [Compound A106a]
14 | 600 | 932 | CC[C@H]1CN(C(C)c2ccc3nsnc3c2)[C@H](CC)CN1c1cc(=O)n(C)c2cn(CC#N)nc12 (single isomer, unassigned) [Compound A106b]

The next lines start with the compound.

Row | SMILES | IC50 (DGKζ) [nM] | IC50 (DGKα) [nM]
15 | CC[C@H]1CN(C(C)c2ccc(C3CC3)nc2)[C@H](CC)CN1c1c(F)c(=O)n(C)c2cn(CC#N)nc12 (single isomer, unassigned) [Compound A48b] | 108 | 788
16 | CC[C@H]1CN(C(C)c2ccc(OC(C)C)cn2)[C@H](CC)CN1c1cc(=O)n(C)c2cn(CC#N)nc12 (single isomer, unassigned) [Compound A51b] | 1800 | 337
17 | CC[C@H]1CN(C(C)c2ccc(C)c(C)n2)[C@H](CC)CN1c1cc(=O)n(C)c2cn(CC#N)nc12 (single isomer, unassigned) [Compound A54a] | 33 | 76
18 | CC[C@H]1CN(C(C)c2ccc(C)c(C)n2)[C@H](CC)CN1c1cc(=O)n(C)c2cn(CC#N)nc12 (single isomer, unassigned) [Compound A54b] | 1890 | 1910
19 | CC[C@H]1CN(C(C)c2ccc3c(c2)OCO3)[C@H](CC)CN1c1cc(=O)n(C)c2cn(CC#N)nc12 (single isomer, unassigned) [Compound A68a] | 49 | 97
20 | CC[C@H]1CN(C(C)c2ccc3c(c2)OCO3)[C@H](CC)CN1c1cc(=O)n(C)c2cn(CC#N)nc12 (single isomer, unassigned) [Compound A68b] | 2550 | 1390
21 | CC[C@H]1CN(C(C)c2ccc3c(n2)OCO3)[C@H](CC)CN1c1cc(=O)n(C)c2cn(CC#N)nc12 (single isomer, unassigned) [Compound A75a] | 139 | 74
22 | CC[C@H]1CN(C(C)c2ccc3c(n2)OCO3)[C@H](CC)CN1c1cc(=O)n(C)c2cn(CC#N)nc12 (single isomer, unassigned) [Compound A75b] | 5050 | 1110
23 | CC[C@H]1CN(C(C)c2ccc3ccnn3c2)[C@H](CC)CN1c1cc(=O)n(C)c2cn(CC#N)nc12 (single isomer, unassigned) [Compound A77a] | 54 | 178
24 | CC[C@H]1CN(C(C)c2ccc3ccnn3c2)[C@H](CC)CN1c1cc(=O)n(C)c2cn(CC#N)nc12 (single isomer, unassigned) [Compound A77b] | 859 | 744
25 | CC[C@H]1CN(C(C)c2ccn3ccnc3c2)[C@H](CC)CN1c1cc(=O)n(C)c2cn(CC#N)nc12 (single isomer, unassigned) [Compound A80a] | 939 | 140
26 | CC[C@H]1CN(C(C)c2ccn3ccnc3c2)[C@H](CC)CN1c1cc(=O)n(C)c2cn(CC#N)nc12 (single isomer, unassigned) [Compound A80b] | 6900 | 3040
27 | CC[C@H]1CN(C(C)c2ccc3nccn3c2)[C@H](CC)CN1c1cc(=O)n(C)c2cn(CC#N)nc12 (single isomer, unassigned) [Compound A82a] | 486 | 109
28 | CC[C@H]1CN(C(C)c2ccc3nccn3c2)[C@H](CC)CN1c1cc(=O)n(C)c2cn(CC#N)nc12 (single isomer, unassigned) [Compound A82b] | 8520 | 3050
29 | CC[C@H]1CN(C(C)c2ccc3cncn3c2)[C@H](CC)CN1c1cc(=O)n(C)c2cn(CC#N)nc12 (single isomer, unassigned) [Compound A83a] | 8790 | 648
30 | CC[C@H]1CN(C(C)c2ccc3cncn3c2)[C@H](CC)CN1c1cc(=O)n(C)c2cn(CC#N)nc12 (single isomer, unassigned) [Compound A83b] | 1800 | 90
31 | CC[C@@H]1CN(c2cc(=O)n(C)c3cn(CC#N)nc23)[C@@H](C)CN1[C@@H](C)c1ccc2ncoc2c1 (single isomer, unassigned) [Compound A85a] | 78 | 170
32 | CC[C@@H]1CN(c2cc(=O)n(C)c3cn(CC#N)nc23)[C@@H](C)CN1[C@H](C)c1ccc2ncoc2c1 (single isomer, unassigned) [Compound A85b] | 3500 | 2040
33 | CC[C@H]1CN(C(C)c2ccc(NC(C)=O)c(O)c2F)[C@H](CC)CN1c1cc(=O)n(C)c2cn(CC#N)nc12 (single isomer, unassigned) [Compound A87a] | 2820 | 2010
34 | CC[C@H]1CN(C(C)c2ccc(NC(C)=O)c(O)c2F)[C@H](CC)CN1c1cc(=O)n(C)c2cn(CC#N)nc12 (single isomer, unassigned) [Compound A87b] | > 10000 | 35200
35 | CC[C@@H]1CN(c2cc(=O)n(C)c3cn(CC#N)nc23)[C@@H](C)CN1C(C)c1ccc2ncsc2n1 (single isomer, unassigned) [Compound A100a] | 46 | 85
36 | CC[C@@H]1CN(c2cc(=O)n(C)c3cn(CC#N)nc23)[C@@H](C)CN1C(C)c1ccc2ncsc2n1 (single isomer, unassigned) [Compound A100b] | 2610 | 2890
37 | CC[C@@H]1CN(c2cc(=O)n(C)c3cn(CC#N)nc23)[C@@H](C)CN1C(C)c1ccc2nc(C)sc2c1F (single isomer, unassigned) [Compound A104a] | 6.5 | 3150
38 | CC[C@@H]1CN(c2cc(=O)n(C)c3cn(CC#N)nc23)[C@@H](C)CN1C(C)c1ccc2nc(C)sc2c1F (single isomer, unassigned) [Compound A104b] | 220 | 18400
